From patent US20200392138A1, “PESTICIDALLY ACTIVE MESOIONIC HETEROCYCLIC COMPOUNDS” (Syngenta Participations AG, priority 2017, published 2020) come the findings set out here.

Holding throughout (type): in vivo
In one test the test system is Diabrotica balteata. The test can be described thus: Diabrotica balteata (corn root worm), maize sprouts sprayed, L2 larvae. The conditions noted are these: 96 h, application rate of 200 ppm, 4 days after infestation, read-out: effect in at least one of the two categories (mortality or growth inhibition). On the procedure:
Diabrotica balteata (Corn Root Worm)
Maize sprouts placed onto an agar layer in 24-well microtiter plates were treated with aqueous test solutions prepared from 10′000 ppm DMSO stock solutions by spraying. After drying, the plates were infested with L2 larvae (6 to 10 per well). The samples were assessed for mortality and growth inhibition in comparison to untreated samples 4 days after infestation.
(§1) The following compounds gave an effect of at least 80% in at least one of the two categories (mortality or growth inhibition) at an application rate of 200 ppm: […]

Another test deals with Euschistus heros. The test can be described thus: Euschistus heros (neotropical brown stink bug), soybean leaves sprayed, N2 nymphs. The settings on record: 120 h, application rate of 200 ppm, 5 days after infestation, read-out: effect in at least one of the two categories (mortality or growth inhibition). The procedure:
Euschistus heros (Neotropical Brown Stink Bug)
Soybean leaves on agar in 24-well microtiter plates were sprayed with aqueous test solutions prepared from 10′000 ppm DMSO stock solutions. After drying the leaves were infested with N2 nymphs. The samples were assessed for mortality and growth inhibition in comparison to untreated samples 5 days after infestation.
as §1

The next test relates to Thrips tabaci. In words: Thrips tabaci (onion thrips) feeding/contact activity, sunflower leaf discs. The settings on record: foliar, 144 h, application rate of 200 ppm, mixed ages, 6 days after infestation. The procedure: Thrips tabaci (Onion Thrips) Feeding/Contact Activity
Sunflower leaf discs were placed on agar in 24-well microtiter plates and sprayed with aqueous test solutions prepared from 10′000 ppm DMSO stock solutions. After drying the leaf discs were infested with a thrips population of mixed ages. The samples were assessed for mortality 6 days after infestation.

The subject of the next test is Spodoptera littoralis. The test can be described thus: Spodoptera littoralis (Egyptian cotton leaf worm), cotton leaf discs sprayed, L1 larvae. The conditions noted are these: foliar, 72 h, application rate of 200 ppm, 3 days after infestation, read-out: control (mortality, anti-feeding effect, growth inhibition). On the procedure:
Spodoptera littoralis (Egyptian Cotton Leaf Worm)
Cotton leaf discs were placed onto agar in 24-well microtiter plates and sprayed with aqueous test solutions prepared from 10′000 ppm DMSO stock solutions. After drying the leaf discs were infested with five L1 larvae. The samples were assessed for mortality, anti-feeding effect, and growth inhibition in comparison to untreated samples 3 days after infestation. Control of Spodoptera littoralis by a test sample is given when at least one of the categories mortality, anti-feedant effect, and growth inhibition is higher than the untreated sample.

The subject of another test is Myzus persicae. The test can be described thus: Myzus persicae (green peach aphid): feeding/contact activity, sunflower leaf discs. The conditions noted are these: foliar, 144 h, application rate of 200 ppm, mixed ages, 6 days after infestation. The procedure: Myzus persicae (Green Peach Aphid): Feeding/Contact Activity
Sunflower leaf discs were placed onto agar in a 24-well microtiter plate and sprayed with aqueous test solutions prepared from 10′000 ppm DMSO stock solutions. After drying, the leaf discs were infested with an aphid population of mixed ages. The samples were assessed for mortality 6 days after infestation.

Some results are limits rather than exact numbers.

For the molecule `Cn1ccc2n1c(=O)c(-c1cccc(C(F)(F)F)c1)c([O-])[n+]2CCC#N` [Compound B2, 4-(2-cyanoethyl)-1-methyl-7-oxo-6-[3-(trifluoromethyl)phenyl]pyrazolo[1,5-a]pyrimidin-4-ium-5-olate], the percent effect (mortality or growth inhibition) at 200 ppm in the test with Diabrotica balteata and in the test on Euschistus heros was at least 80% in each case. In addition, in the test with Thrips tabaci, the mortality at 200 ppm is at least 80%.
Take `Cn1ccc2n1c(=O)c(-c1cc(Cl)cc(Cl)c1)c([O-])[n+]2Cc1cnc(Cl)s1` [Compound A1, 4-[(2-chlorothiazol-5-yl)methyl]-6-(3,5-dichlorophenyl)-1-methyl-7-oxo-pyrazolo[1,5-a]pyrimidin-4-ium-5-olate]: the percent effect (mortality or growth inhibition) at 200 ppm with Diabrotica balteata was at least 80%. The mortality at 200 ppm in the test with Spodoptera littoralis was at least 80%.
In the case of `Cn1ccc2n1c(=O)c(-c1cc(Cl)cc(Cl)c1)c([O-])[n+]2CCn1cncn1` [Compound B21], the mortality at 200 ppm in the test with Myzus persicae was at least 80%.
